Several values for one entry are separate records, joined by “and”; a condition that tells them apart may be missing. Equal values may be shown once.
Tests used:
human hepatocytes = test: Hepatocyte intrinsic clearance assay (metabolic stability), human hepatocytes; type: in vitro ADME; details: Human Hepatocytes; for EH (hepatic extraction ratio): well stirred liver model, fu=1
Excerpt: (§1) The liver is an important organ in the body for drug metabolism. This Example describes hepatocyte intrinsic clearance assays using both human and rat hepatocytes to evaluate the metabolic stability of the indole compounds disclosed herein. The parameters measured include t1/2 (half-life), CLint (intrinsic clearance), and EH (hepatic extraction ratio).
(§2) Testosterone (Lot FE111011-01) was obtained from Cerilliant (Round Rock, Tex.). 7-hydroxycoumarin (Lot 11631ED) was obtained from Sigma Aldrich (St. Louis, Mo.). Cryopreserved human hepatocytes pooled from ten donor males (X008001), cryopreserved male IRC/CD-1 mouse hepatocytes (M005052), INVITROGRO HI Medium (incubation), and INVITROGRO HT Medium (thawing) were obtained from Bioreclamation IVT (Baltimore, Md.). All solvents were obtained from commercial sources and used without further purification.
(§3) Each test compound was prepared as a 1 mM stock solution in DMSO. A 2 μM solution of test compound and positive controls were prepared in INVITROGRO HI Medium (incubation). These solutions were pre-warmed in a sterile incubator set to maintain 37° C., 5% CO2, and 98% humidity. Cryopreserved hepatocytes were prepared at a concentration of 2×10^6 living cells/mL in incubation media and pre-warmed in the incubator. The compound solutions and hepatocyte mixtures were then combined at a ratio of 1:1 (v:v). The final volume of the reaction mixture was 750 μL, containing 1 μM test compound (10 μM for 7-hydroxycoumarin) and […]. The reaction mixture was placed in the incubator on a plate shaker. After 0, 15, 30, 60, 90, and 120 minutes of incubation, 100 μL of reaction mixtures were removed from the incubation plate and mixed with 150 μL of ice-cold acetonitrile in a designated well of a 96-well crash plate. The 96-well crash plate was placed on ice for 15 min, and samples were centrifuged (3,600 RPM, 10 min, 4° C.) to precipitate protein. The supernatants were diluted 1:1 (v:v) with water containing 0.15 μM verapamil and/or 1 μM tolbutamide (internal standards for positive and negative modes, respectively) in a 96-well shallow injection plate. This plate was sealed for LC-MS analysis. All measurements were done in duplicate.
(§4) The residual compound remaining (% R) was determined from LC-MS peak areas by comparison to the zero time point. Metabolic half-life (t1/2) and intrinsic clearance (CLint) values were calculated from the slope of the plot of ln (% R) vs. time and the concentration of hepatocytes present in the incubation. Percent remaining at 60 minutes was calculated by plugging in the 60 minute value into the slope equation generated by the percent remaining time points.
(§5) In vivo hepatic clearance CLH was calculated using the well stirred liver model according to the following equation:
(§6) [formula] where QH is the total liver blood flow, fu is unbound fraction of the drug, and CL′int is defined as follows: CL′int=CLint×(10^6 cells/g of liver weight)×(g liver weight/kg of body weight). In the first approximation, used in this study, fu=1.
(§7) Hepatic extraction ratio EH was calculated using the following equation:
(§8) [formula] Corresponding physiological parameters used in calculations for all species are shown below in Table 3.

[1] = as above; type: in vitro ADME; details: male, human, cryopreserved pooled hepatocytes, Human Hepatocytes, 1 μM test compound
Excerpt: as §1, §2, §3, §4, §5, §6, §7, §8

AhR = molecular target: T1, AhR (Homo sapiens, UniProt P35869); test: EROD assay (7-ethoxy-resorufin-O-deethylase; CYP1A1 activity) in human HepG2 cells; type: cell-based
T1 construct: host or cells: human HepG2 cells
T1 sequence (P35869 11-848): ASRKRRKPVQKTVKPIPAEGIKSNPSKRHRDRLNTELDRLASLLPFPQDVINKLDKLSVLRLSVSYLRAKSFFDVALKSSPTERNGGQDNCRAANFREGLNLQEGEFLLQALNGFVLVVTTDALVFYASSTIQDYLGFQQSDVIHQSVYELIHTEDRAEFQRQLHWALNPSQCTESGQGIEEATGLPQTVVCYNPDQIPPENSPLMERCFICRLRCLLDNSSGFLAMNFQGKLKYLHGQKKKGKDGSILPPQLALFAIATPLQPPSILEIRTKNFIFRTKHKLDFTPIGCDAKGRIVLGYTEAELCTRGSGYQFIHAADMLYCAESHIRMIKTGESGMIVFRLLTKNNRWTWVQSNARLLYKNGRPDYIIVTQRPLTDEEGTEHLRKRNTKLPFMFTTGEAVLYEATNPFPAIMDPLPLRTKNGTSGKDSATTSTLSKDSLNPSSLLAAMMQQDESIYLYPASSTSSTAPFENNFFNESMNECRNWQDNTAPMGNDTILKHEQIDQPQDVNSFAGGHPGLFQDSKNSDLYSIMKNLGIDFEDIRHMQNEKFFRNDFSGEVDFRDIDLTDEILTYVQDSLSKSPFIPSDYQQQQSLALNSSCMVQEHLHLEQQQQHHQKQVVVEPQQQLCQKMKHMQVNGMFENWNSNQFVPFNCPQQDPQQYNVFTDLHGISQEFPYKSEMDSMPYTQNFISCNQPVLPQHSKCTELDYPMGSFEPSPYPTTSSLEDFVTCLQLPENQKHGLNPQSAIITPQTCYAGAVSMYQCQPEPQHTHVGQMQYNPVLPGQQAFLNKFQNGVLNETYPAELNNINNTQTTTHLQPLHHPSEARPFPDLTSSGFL
Description: CYP1A1 induction is under the control of the AhR signaling pathway. This Example describes an in vitro assay (7-ethoxy-resorufin-O-deethylase (EROD) assay) that evaluated the AhR modulating activities of the indole compounds described herein. In this assay, the indole compounds were incubated with human HepG2 cells or mouse Hepa1-6 cells. The activity of CYP1A1 in the cells was measured by the conversion of substrate 7-ethoxyresorufin, with the readout being a fluorescence signal associated with the conversion product. The EC50 values of the indole compounds as well as the maximum luminescence induced by them in the assay were determined.
Human HepG2 cells were obtained from Sigma Aldrich (Catalog 85011430-1VL).
Human HepG2 cells were grown to 60-80% confluency in tissue culture flasks, lifted with non-enzymatic cell dissociation solution (cell stripper), seeded in a 384-well plate at 5,000 cells per well, treated with the test compounds, and incubated for 20 hours overnight at 37° C. The treatment medium was removed and a solution of substrate 7-ethoxyresorufin (ETX) was added to initiate the reaction. The plate was incubated at 37° C. for 30 minutes. The reaction was subsequently terminated by adding tempered methanol. Fluorescent emission was measured at 590 nm with excitation at 530 nm in a FLEXSTATION III instrument (Molecular Devices).

rat hepatocytes = test: Hepatocyte intrinsic clearance assay (metabolic stability), rat hepatocytes; type: in vitro ADME; details: Rat Hepatocytes; for EH (hepatic extraction ratio): well stirred liver model, fu=1
Excerpt: as §1, §2, §3, §4, §5, §6, §7, §8

[2] = as above; type: in vitro ADME; details: rat, cryopreserved hepatocytes, Rat Hepatocytes, 1 μM test compound
Excerpt: as §1, §2, §3, §4, §5, §6, §7, §8

CYP3A4 = molecular target: T2, CYP3A4 (Homo sapiens, UniProt P08684); test: CYP profiling: human liver microsomes with CYP3A4 inhibitor ketoconazole; type: in vitro ADME; parameters: % Compound Metabolized at 30 min, CYP3A4 Inhibitor: concentration or dose not given beside the values; details: HLMs; for % Inhibition Relative to Negative Control, 3A4: 30 min
T2 construct: from tissue; host or cells: human liver microsomes
Description: (§9) In order to investigate the contributions of CYP1A2 and CYP3A4 to the metabolism of the compounds of the present disclosure, human liver microsomes were incubated with the test compounds for 30 minutes in the presence of selective chemical inhibitors furafylline (1A2) and ketoconazole (3A4).

[3] = CYP profiling: turnover in human liver microsomes, 30 min, no inhibitor; type: in vitro ADME; parameters: % Compound Metabolized at 30 min, No Inhibitor: concentration or dose not given beside the values; details: HLMs
Description: as §9

CYP1A2 = molecular target: T3, CYP1A2 (Homo sapiens, UniProt P05177); test: CYP profiling: human liver microsomes with CYP1A2 inhibitor furafylline; type: in vitro ADME; parameters: % Compound Metabolized at 30 min, CYP1A2 Inhibitor: concentration or dose not given beside the values; details: HLMs; for % Inhibition Relative to Negative Control, 1A2: 30 min
T3 construct: from tissue; host or cells: human liver microsomes
T3 sequence (P05177 1-516): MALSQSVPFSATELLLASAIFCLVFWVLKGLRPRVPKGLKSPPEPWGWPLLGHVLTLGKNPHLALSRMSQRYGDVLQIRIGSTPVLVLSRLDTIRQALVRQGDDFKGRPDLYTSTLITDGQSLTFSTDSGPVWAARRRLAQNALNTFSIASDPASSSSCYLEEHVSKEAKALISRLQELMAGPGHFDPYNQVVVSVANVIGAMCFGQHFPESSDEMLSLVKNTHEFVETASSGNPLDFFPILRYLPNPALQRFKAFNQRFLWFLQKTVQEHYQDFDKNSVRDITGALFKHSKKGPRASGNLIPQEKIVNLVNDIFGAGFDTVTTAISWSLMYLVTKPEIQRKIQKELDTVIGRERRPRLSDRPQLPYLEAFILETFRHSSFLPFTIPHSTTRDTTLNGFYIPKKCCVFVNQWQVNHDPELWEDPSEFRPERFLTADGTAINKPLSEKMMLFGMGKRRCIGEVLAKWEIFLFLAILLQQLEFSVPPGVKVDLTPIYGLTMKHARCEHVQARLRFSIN
Description: as §9

[4] = HepG2, human HepG2 cells, Plate 1

T2 sequence (P08684 whole entry): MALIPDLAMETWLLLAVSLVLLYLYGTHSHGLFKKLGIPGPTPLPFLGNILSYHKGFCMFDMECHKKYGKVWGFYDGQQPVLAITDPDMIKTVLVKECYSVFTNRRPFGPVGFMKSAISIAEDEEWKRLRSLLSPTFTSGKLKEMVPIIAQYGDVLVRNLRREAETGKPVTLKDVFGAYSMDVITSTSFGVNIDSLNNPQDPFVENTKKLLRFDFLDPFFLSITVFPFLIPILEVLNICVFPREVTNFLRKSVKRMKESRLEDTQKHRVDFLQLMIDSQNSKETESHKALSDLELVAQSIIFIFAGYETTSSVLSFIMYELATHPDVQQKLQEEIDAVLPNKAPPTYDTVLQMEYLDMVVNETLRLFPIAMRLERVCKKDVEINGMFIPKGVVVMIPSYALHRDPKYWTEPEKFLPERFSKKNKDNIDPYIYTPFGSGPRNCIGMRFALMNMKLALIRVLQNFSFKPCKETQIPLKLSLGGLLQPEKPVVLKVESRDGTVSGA

SMILES	EH (hepatic extraction ratio) (human hepatocytes) [%]	half-life at 1 μM [1] [min]	hepatocyte CLint at 1 μM [1] [µL/min/1e6 cells]	EC90 (AhR; [4]) [nM]	EC50 (AhR; human HepG2 cells, Plate 1) [nM]	EH (hepatic extraction ratio) (rat hepatocytes) [%]	half-life at 1 μM [2] [min]	hepatocyte CLint at 1 μM [2] [µL/min/1e6 cells]	% Compound Metabolized at 30 min, CYP3A4 Inhibitor (CYP3A4)	% Inhibition Relative to Negative Control, 3A4 (CYP3A4)	% Compound Metabolized at 30 min, No Inhibitor [3]	% Compound Metabolized at 30 min, CYP1A2 Inhibitor (CYP1A2)	% Inhibition Relative to Negative Control, 1A2 (CYP1A2)	CLint (human hepatocytes; 1 μM test compound) [μL/min/10^6 cells]	EC90 (AhR; human HepG2 cells, Plate 1) [nM]	EC50 (AhR; human HepG2 cells, Plate 2) [nM]	EC90 (AhR; human HepG2 cells, Plate 2) [nM]	CLint (rat hepatocytes; 1 μM test compound) [μL/min/10^6 cells]
CC[C@@H](O)c1nc(C(=O)c2c[nH]c3cc(F)ccc23)cs1 [ARI-214]	26.7	30	21.5	2810	582	34.9	84	8.01										
CCOc1ccc(NC(C)=O)cc1 [Phenacitin]									23%	36%	36% and 31%	3% and 1%	92% and 97%					
Cc1ncc2n1-c1ccc(Cl)cc1C(c1ccccc1F)=NC2 [Midazolam]									1% and 0%	99% and 100%	98% and 97%	96%	2%					
CC(C)(O)c1csc(C(=O)c2c[nH]c3ccccc23)n1 [ARI-215, (1H-indol-3-yl)(4-(2-hydroxypropan-2-yl)thiazol-2-yl)methanone]	25.9	36	17.9	135	119	47.3	54	13.4										
CCC(C)(O)c1csc(C(=O)c2c[nH]c3cc(F)ccc23)n1 (stereo not drawn) [ARI209, (6-fluoro-1H-indol-3-yl)(4-(2-hydroxybutan-2-yl)thiazol-2-yl)methanone]	25.0	48	14.7			44.9	54	12.2										
CC[C@H](O)c1nc(C(=O)c2c[nH]c3cc(F)ccc23)cs1 [ARI-213]	24.7	48	14	672	476	48.1	48	13.9										
CC[C@H](O)c1csc(C(=O)c2c[nH]c3ccc(F)cc23)n1 [ARI-194]	26.5	36	20.5	517	409	55.0	36	18.2										
COC(=O)c1csc(C(=O)c2c[nH]c3ccccc23)n1 [ARI-001, ITE, reference compound]	31.3				4440	85.7								767.365	13200	29000	458000	89.786
O=C(c1nc(C(O)C(F)(F)F)cs1)c1c[nH]c2ccccc12 (stereo not drawn) [ARI088]	24.1	54	12.4			43.7	60	11.6										
CCC(O)(CC)c1csc(C(=O)c2c[nH]c3cc(F)ccc23)n1 [ARI-210, (6-fluoro-1H-indol-3-yl)(4-(3-hydroxypentan-3-yl)thiazol-2-yl)methanone]	25.4	42	16	627	241	66.7	24	29.9										
CC[C@@H](O)c1csc(C(=O)c2c[nH]c3ccc(F)cc23)n1 [ARI-195]	26.5	36	20.6	847	289	38.0	78	9.16										

Reference: patent US11390621B2, “Chiral indole compounds and their use” (ARIAGEN, INC., priority 2019, dated 2022)
